This assay concerns angiotensin II receptor. Briefly: Angiotensin II receptor binding assay ([3H] angiotensin II displacement). Particulars: 60 minutes at 25° C., pH 7.2, test concentration not given. How it is done:
The inventive compounds were tested to measure their angiotensin II receptor binding capacity as follows.
1. Angiotensin II receptor binding assay
In accordance with the procedure disclosed in Chiu, A. T. et al., Eur. J. Pharm., 157, 13 ([…])t a ligand marked with a radioistope was reacted with an angiotensin II receptor and the reactant was filtered with a glass fiber to remove unreacted ligand. After washing the filter, the amount of the remaining isotope was measured to determine the binding activity of the ligand, as described below in detail.
(i) Isolation of angiotensin II receptor
Sprague-Dawley rats and Wistar rats of 250 to 350 g (from The Korea Research Institute of Chemical Technology) were tested and the test procedures were carried out at 4° C., unless otherwise specified. Adrenal gland was separated from the Sprague-Dawley rats (liver, in the case of Wistar rats) into cortex and medulla. The separated adrenal cortex and medulla were washed with a sucrose buffer solution (0.2M sucrose, 1 mM EDTA, 10 mM Tris, pH 7.2) and homogenized in the same buffer solution by using a Teflon pestle and a Brinkmann homogenizer. The homogenates were centrifuged at 3,000× g for 10 minutes to remove precipitates and further centrifuged at 12,000× g for 13 minutes. The final supernatants were centrifuged at 102,000× g for 1 hour to obtain precipitates, which were washed with a Tris buffer solution (50 mM Tris, 5 mM MgCl2, pH 7.2) and re-centrifuged at 102,000× g for 1 hour. The resulting precipitates were immediately processed at the following step or stored at -70° C.
The precipitates were suspended in a Tris buffer solution. The amount of protein was determined by using a Bio-Rad DC protein analyzing kit and the protein concentration was adjusted to the amounts of: 0.2 to 0.3 mg/ml (Sprague-Dawley rat: adrenal cortex), 1.5 to 2.0 mg/ml (Sprague-Dawley rat: adrenal medulla), and 1.5 to 2.0 mg/ml (Wistar rat: liver). To the suspension, bovine serum albumin (BSA) was added to a concentration of 0.25 wt % and the resultant was immediately processed at the following step or stored at -70° C.
(ii) Measurement of angiotensin II receptor binding capacity
50 μl (based on ligand) of [^3 H] angiotensin II (NEN, NET-446) and 10 μl of each of the test compounds with various concentrations were added to the buffer solution (50 mM Tris (pH 7.2), 5 mM MgCl2, 0.25% BSA) to adjust the final volume to be 0.5 ml. Losartan (Dup 753), which is disclosed in EP No. 400,974 issued to Merck, was used as the control compound. 100 μl of the receptor suspension was added thereto and the resulting solution was reacted for 60 minutes while stirring in a water bath at 25° C. 3 ml of cold buffer solution for analysis was added to cease the reaction. The isotope which was bound to the receptor was isolated from the resultant by using Brandel Cell Harvester System with Whatman glass fiber GF/C. After washing the filter, the radioactivity of the filter was determined by using a liquid scintillation counter. Binding inhibition (%) of the test compound was calculated as follows:
Binding Inhibition (%)=[{(T-B)-(S-B)}/(T-B)]×100
wherein T is the radioactivity (cpm) of the reaction product untreated with the test compound, S is the radioactivity (cpm) of the reaction product treated with the test compound, and B is the radioactivity (cpm) of blank test.

Consider `CCCCc1nc(Cl)c(C(=O)c2cccc(C(=O)OC)[n+]2[O-])n1Cc1ccc(-c2ccccc2-c2nn[nH]n2)cc1` [Compound 21, {2-butyl-5-chloro-3-[(2'-(1H-tetrazol-5-yl)biphenyl-4-yl)methyl]-3H-imidazol-4-yl}(6-methoxycarbonyl-1-oxypyridin-2-yl)methanone], for which the “Binding Inhibition (%)” value is 86.5%.

With `CCCCc1nc(Cl)c(C(=O)c2ccc(C(OC)OC)c[n+]2[O-])n1Cc1ccc(-c2ccccc2-c2nn[nH]n2)cc1` [Compound 22, {2-butyl-5-chloro-3-[(2'-(1H-tetrazol-5-yl)biphenyl-4-yl)methyl]-3H-imidazol-4-yl}[5-(dimethoxymethyl)-1-oxypyridin-2-yl]methanone], the “Binding Inhibition (%)” value is listed as 90.1%. The figure for `CCCCc1nc(Cl)c(C(=O)c2ccc(C=O)c[n+]2[O-])n1Cc1ccc(-c2ccccc2-c2nn[nH]n2)cc1` [Compound 23, {2-butyl-5-chloro-3-[(2'-(1H-tetrazol-5-yl)biphenyl-4-yl)methyl]-3H-imidazol-4-yl}(5-formyl-1-oxypyridin-2-yl)methanone] is 93.4%; for `CCCCc1nc(Cl)c(C(O)c2ccc(CO)c[n+]2[O-])n1Cc1ccc(-c2ccccc2-c2nn[nH]n2)cc1` (stereo not drawn) [Compound 24, {2-butyl-5-chloro-3-[(2'-(1H-tetrazol-5-yl1)biphenyl1-4-yl)methyl1]-3H-imidazol-4-yl}(5-hydroxymethyl-1-oxypyridin-2-yl)methanol] it is 76.1%. For `CCCCc1nc(Cl)c(C(O)c2ccc(C(OC)OC)cn2)n1Cc1ccc(-c2ccccc2-c2nnn[nH]2)cc1` (stereo not drawn) [Compound 25, {2-butyl-5-chloro-3-[(2'-(1H-tetrazol-5-yl)biphenyl-4-yl)methyl]-3H-imidazol-4-yl}[5-(dimethoxymethyl)pyridin-2-yl]methanol] the value was 87.8%.

Take `CCCCc1nc(Cl)c(C(=O)c2ccc(C(OC)OC)cn2)n1Cc1ccc(-c2ccccc2-c2nnn[nH]2)cc1` [Compound 26, {2-butyl-5-chloro-3-[(2'-(1H-tetrazol-5-yl)biphenyl-4-yl)methyl]-3H-imidazol-4-yl}[5-(dimethoxymethyl)pyridin-2-yl]methanone]: the “Binding Inhibition (%)” value amounted to 94.0%. For `CCCCc1nc(Cl)c(C(=O)c2ccc(C=O)cn2)n1Cc1ccc(-c2ccccc2-c2nn[nH]n2)cc1` [Compound 27, {2-butyl-5-chloro-3-[(2'-(1H-tetrazol-5-yl1)biphenyl-4-yl)methyl]-3H-imidazol-4-yl}(5-formylpyridin-2-yl)methanone] the value was 81.3%. The figure for `CCCCc1nc(Cl)c(C(=O)c2ccc(CO)cn2)n1Cc1ccc(-c2ccccc2-c2nn[nH]n2)cc1` [Compound 28] is 78.9%; for `CCCCc1nc(Cl)c(C(=O)c2ccc(CCl)cn2)n1Cc1ccc(-c2ccccc2-c2nnn[nH]2)cc1` [Compound 29, {2-butyl-5-chloro-3-[(2'-(1H-tetrazol-5-yl)biphenyl-4-yl)methyl]-3H-imidazol-4-yl}[5-(chloromethyl)pyridin-2-yl]methanone] it is 83.6%; for `CCCCc1nc(Cl)c(C(O)c2ccc(CO)cn2)n1Cc1ccc(-c2ccccc2-c2nnn[nH]2)cc1` (stereo not drawn) [Compound 30, {2-butyl-5-chloro-3-[(2'-(1H-tetrazol-5-yl)biphenyl-4-yl)methyl]-3H-imidazol-4-yl}[5-(hydroxymethyl)pyridin-2-yl]methanol] it is 90.2%. The figure for `CCCCc1nc(Cl)c(C(=O)c2ccc(CN(CC)CC)c[n+]2[O-])n1Cc1ccc(-c2ccccc2-c2nn[nH]n2)cc1` [Compound 31, {2-butyl-5-chloro-3-[(2'-(1H-tetrazol-5-yl)biphenyl-4-yl)methyl]-3H-imidazol-4-yl}[5-(diethylamino)methyl-1-oxypyridin-2-yl]methanone] is 97.8%; for `CCCCc1nc(Cl)c(C(=O)c2ccc(C[N+]([O-])(CC)CC)c[n+]2[O-])n1Cc1ccc(-c2ccccc2-c2nn[nH]n2)cc1` [Compound 32, {2-butyl-5-chloro-3-[(2'-(1H-tetrazol-5-yl)biphenyl-4-yl)methyl]-3H-imidazol-4-yl}[5-((diethyl)(oxy)amino)methyl-1-oxypyridin-2-yl]methanone] it is 98.8%. `CCCCc1nc(Cl)c(C(O)c2ccc(CN(CC)CC)cn2)n1Cc1ccc(-c2ccccc2-c2nnn[nH]2)cc1` (stereo not drawn) [Compound 33, {2-butyl-5-chloro-3-[(2'-(1H-tetrazol-5-yl)biphenyl-4-yl)methyl]-3H-imidazol-4-yl}[5-((diethylamino)methyl)pyridin-2-yl]methanol]: the “Binding Inhibition (%)” value came to 73.3%.

Consider `CCCCc1nc(Cl)c(C(=O)c2ccc(CN(CC)CC)cn2)n1Cc1ccc(-c2ccccc2-c2nnn[nH]2)cc1` [Compound 34, {2-butyl-5-chloro-3-[(2'-(1H-tetrazol-5-yl)biphenyl-4-yl)methyl]-3H-imidazol-4-yl}[5-((diethylamino)methyl)pyridin-2-yl]methanone], for which the “Binding Inhibition (%)” value was determined as 95.6%. The figure for `CCCCc1nc(Cl)c(C(=O)c2ccc(C[N+]([O-])(CC)CC)cn2)n1Cc1ccc(-c2ccccc2-c2nn[nH]n2)cc1` [Compound 35, {2-butyl-5-chloro-3-[(2'-(1H-tetrazol-5-yl)biphenyl-4-yl)methyl]-3H-imidazo1-4-yl}{5-[((diethyl)(oxy)amino)methyl]pyridin-2-yl}methanone] is 97.9%; for `CCCCc1nc(Cl)c(C(O)c2cccc(C(=O)N(CC)CC)[n+]2[O-])n1Cc1ccc(-c2ccccc2-c2nn[nH]n2)cc1` (stereo not drawn) [Compound 36, {2-butyl-5-chloro-3-[(2'-(1H-tetrazol-5-yl)biphenyl-4-yl)methyl]-3H-imidazol-4-yl}[6-(diethylamino)carbonyl-1-oxypyridin-2-yl]methanol] it is 75.4%.

On to `CCCCc1nc(Cl)c(C(=O)c2cccc(C(=O)N(CC)CC)[n+]2[O-])n1Cc1ccc(-c2ccccc2-c2nn[nH]n2)cc1` [Compound 37, {2-butyl-5-chloro-3-[(2'-(1H-tetrazol-5-yl)biphenyl-4-yl)methyl]-3H-imidazol-4-yl}[6-(diethylamino)carbonyl-1-oxypyridin-2-yl]methanone], for which the “Binding Inhibition (%)” value is reported as 92.8%. For `CCCCc1nc(Cl)c(C(=O)c2cccc(C=NO)[n+]2[O-])n1Cc1ccc(-c2ccccc2-c2nn[nH]n2)cc1` [Compound 38, {2-butyl-5-chloro-3-[(2'-(1H-tetrazol-5-yl)biphenyl-4-yl)methyl]-3H-imidazol-4-yl}[6-(hydroxyimino)methyl-1-oxypyridin-2-yl]methanone], the “Binding Inhibition (%)” value came to 95.4%. For `CCCCc1nc(Cl)c(C(=O)c2ccc(C(OC)OC)c(C)[n+]2[O-])n1Cc1ccc(-c2ccccc2-c2nn[nH]n2)cc1` [Compound 39, {2-butyl-5-chloro-3-[(2'-(1H-tetrazol-5-yl)biphenyl-4-yl)methyl]-3H-imidazol-4-yl}[5-(dimethoxymethyl)-6-methyl-1-oxypyridin-2-yl]methanone] the value was 87.5%; for `CCCCc1nc(Cl)c(C(=O)c2ccc(C=O)c(C)[n+]2[O-])n1Cc1ccc(-c2ccccc2-c2nn[nH]n2)cc1` [Compound 40, {2-butyl-5-chloro-3-[(2'-(1H-tetrazol-5-yl)biphenyl-4-yl)methyl]-3H-imidazol-4-yl}(5-formyl-6-methyl-1-oxypyridin-2-yl)methanone], 90.4%. For `CCCCc1nc(Cl)c(CO)n1Cc1ccc(-c2ccccc2-c2nn[nH]n2)cc1` [Dup 753, Losartan, reference compound] the value was 48.0%.

The values above are taken from patent US5665738A, “Imidazole derivatives and processes for the preparation thereof” (Korea Research Institute of Chemical Technology, priority 1994, dated 1997).
